Source: patent US20220184172A1, “AMPK/CASPASE-6 AXIS CONTROLS LIVER DAMAGE IN NONALCOHOLIC STEATOHEPATITIS” (The Regents of the University of California, priority 2019, published 2022)

Assays:
[1] = test system: procaspase-6 cleavage in HepG2 cells; experiment: Procaspase-6 cleavage induced by TNFα and CHX in HepG2 cells (IB); assay type: cell-based; settings: 40 μM pretreatment 1 hr, then 30 μg/ml CHX and 50 ng/ml TNFα 2 hrs
Experimental: (§1) FIGS. 15A-15F. AMPK phosphorylates caspase-6 and inhibits its cleavage. FIG. 15A. Caspase-6 activity was measure in the lysates from isolated primary hepatocytes treated with vehicle or 250 μM BSA-conjugated palmitic acid (PA) or 50 ng/ml TNFα for 2 hrs. Data are shown as mean±SD. *, P<0.05, Student's unpaired t test. FIG. 15B. HepG2 cells were pretreated with 40 μM A-769662 for 1 hr, and then treated with 30 μg/ml cycloheximide (CHX) and 50 ng/ml TNFα for 2 hrs. Cell lysates were subject to immunoblot (IB) analysis. FIG. 15C. In vitro kinase assay using purified caspase-6-mycexpressed in HEK293T cells, and recombinant AMPKα1β1γ1 active kinase. FIGS. 15D-15E. Flox and LAKO mice were fed with CD-HFD for 8 weeks. After 6 weeks of CD-HFD feeding, mice were intraperitoneally injected with 25 mg/kg A-769662 or vehicle daily for 2 weeks along with continuous CD-HFD feeding. FIG. 15D. […] Quantification of IB analysis in FIG. 15D. n=3. *, P<0.05, two-way ANOVA. […] Quantification of IB analysis in FIG. 5K. n=3. […]
Western blot was performed as previously described(11). […] Supernatants were collected and analyzed with BCA (Thermo Scientific) to quantify protein content. […] Individual proteins were detected with specific antibodies and visualized on film using horseradish peroxidase-conjugated secondary antibodies (Fisher Scientific) and SuperSignal West Pico PLUS Chemilunminescent Substrate (Thermo Scientific).

[2] = test system: CD-HFD-fed Flox and LAKO mice; experiment: A-769662 in CD-HFD-fed Flox and LAKO mice; assay type: in vivo; settings: 25 mg/kg i.p. daily for 2 weeks
Experimental: FIGS. 13A-13I. A-769662 improves liver damage through AMPK activation in hepatocytes in NASH. C57BL/6J mice were fed with CD-HFD for 8 weeks. After 6 weeks of CD-HFD feeding, mice were intraperitoneally injected with 25 mg/kg A-769662 or vehicle daily for 2 weeks along with continuous CD-HFD feeding. FIG. 13A. Schematic diagram of experimental design. FIG. 13B-13C. Body weight (FIG. 13B) and liver weight (FIG. 13C) of indicated mice. n=7. FIG. 13D. Measurement of liver triglyceride (TG) of indicated mice. n=7. FIG. 13E. Quantification of the numbers of TUNEL-positive nuclei per field in liver sections shown in (FIG. 10B (W6), 10A). n=5-7 *, P<0.05, Student's unpaired t test. FIG. 13F-13H. Flox and LAKO mice were fed with CD-HPD for 8 weeks. After 6 weeks of CD-HFD feeding, mice were intraperitoneally injected with 25 mg/kg A-769662 or vehicle daily for 2 weeks along with continuous CD-HFD feeding. FIG. 13F. Paraffin-embedded liver sections of indicated mice were stained with TUNEL and DAPI as indicated therein; in the merged image sections, the different stains correspond to the grayscale shades as indicated in the single stained images to the left. Scale bar=50 μm. FIG. 13G. FIG. 13H. Serum ALT of indicated mice. n=4-5. *, P<0.05, two-way ANOVA. FIG. 13I. Expression of Adgre1 and Ccl2 in the liver of indicated mice. n=7. Data are shown as mean±SEM. *, P<0.05, Student's unpaired t test.
as §1, with “15C.” for “15C. In vitro kinase assay using purified caspase-6-mycexpressed in HEK293T cells, and recombinant AMPKα1β1γ1 active kinase. FIGS. 15D-15E. Flox and LAKO mice were fed with CD-HFD for 8 weeks. After 6 weeks of CD-HFD feeding, mice were intraperitoneally injected with 25 mg/kg A-769662 or vehicle daily for 2 weeks along with continuous CD-HFD feeding. FIG. 15D.”

N#Cc1c(O)c2c(-c3ccc(-c4ccccc4O)cc3)csc2[nH]c1=O [A-769662]
procaspase-6 cleavage [1]: significantly inhibited | procaspase-6 cleavage (liver lysates) ([2]; Flox mice): decreased | procaspase-6 phosphorylation (liver lysates) ([2]; Flox mice): significantly increased | number of apoptotic cells (TUNEL) ([2]; LAKO mice): did not decrease
